Experimental data reported in patent publication US20150024008A1, “Methods and Compositions Involving Induced Senescent Cells for Cancer Treatment” (THE UNIVERSITY OF CHICAGO, priority 2011, published 2015).

Experiments:
[1] = system: breast, prostate, melanoma and head and neck squamous cell cancer cell lines; assay: Radiation induced senescence in different human cancer cell lines; type: cell-based; conditions: combined with radiation
[2] = system: B16SIY murine melanoma tumors; assay: H/E and SA-βGal staining of treated B16 tumors; type: in vivo, mouse; conditions: veliparib+IR vs IR or veliparib alone; 7 days after IR
Procedure: (§1) Mouse melanoma cell line B16SIY (5×10^5 cells) were implanted subcutaneously in the flank of 6 to 8-wk-old C57/B6 mice. Tumors were allowed to grow until they reached a volume of about 100 to 150 mm^3 (approximately 2 wk) before treatment with PARP inhibitor veliparib (vrib, (R)-2-(2-methylpyrrolidin-2-yl)-1H-benzo[d]imidazole-4-carboxamide, ABT-888) and/or IR (Dunn 2006). Mice received 0.5 mg of veliparib in water twice daily by oral gavage as indicated. CD8^+, CD4^+, NK cells were depleted by anti-CD8 or anti-CD4 or anti-NK1.1, respectively, 1 d before IR. Depletion was confirmed by checking peripheral blood samples by flow cytometry. Macrophages were depleted with liposomal clodronate starting 1 d before IR. Depletion was confirmed by checking splenocyte and tumor samples by flow cytometry (Zhang 2008). Samples were collected 2 to 7 days later, and analyzed by flow cytometry using a BD LSRII flow cytometer. Blood samples were gated in forward scatter and side scatter on smaller cells for CD8, CD4 analysis, larger cells for NK and macrophage, and the percentage of different cell types were determined (Lugade 2008, Zhang 2010).
Slides were deparaffinized in xylene and hydrated with alcohol before being placed in 0.3% H2O2/methanol blocking solution to quench endogenous peroxidase activity followed by subsequent antigen unmasking in EDTA buffer. […]

[3] = system: B16SIY murine melanoma cells; assay: DNA damage foci (γH2AX, 53BP1) and SA-βGal senescence in B16SIY cells in vitro; type: cell-based, mouse; conditions: with IR
Procedure: (§2) Slides were deparaffinized in xylene and hydrated with alcohol before being placed in 0.3% H2O2/methanol blocking solution to quench endogenous peroxidase activity followed by subsequent antigen unmasking in EDTA buffer. […] Reactions were developed with 3,3′-diaminobenzidine chromogen or Vulcan Red, respectively, and counterstained with hematoxylin. Negative controls were obtained by using isotype-matched primary antibody IgG. The SA-βGal assay was performed using the Senescence Beta-galactosidase Staining Kit (Cell Signaling) (Dunn 2006). All images were captured using Zeiss Axiovert 200M and Zeiss Axiocam color digital camera controlled by OpenLab software with a 20× objective. All primers sequence and running protocols for RT-PCR can be found in reference Table 2 (Lugade 2008, Zhang 2008).
(§3) B16SIY cells were maintained in a full medium supplemented with 10% FCS. The cells were pretreated with 10 μm veliparib then exposed to 6 or 12 Gy x-ray or IR alone (Gammacell 1000; MDS Nordion, Kanata, Ontario, Canada), then cocultured with immature BM-DC in a transwell system. 3 days later BM-DC were collected and analyzed by FACS for cell surface maturation marker and intracellular cytokines. These BM-DC were used to stimulate sorted CD4+ cells (Lugade 2008, Zhang 2008).

[4] = system: B16 tumors; assay: RT-qPCR and immunohistochemistry of treated B16 tumors; type: in vivo, mouse
Procedure: as §1, §2

[5] = system: MCF7 Tet-On GFP-IBD human breast cancer cell line; assay: GFP-53BP1 IRIF persistence, senescence and growth in MCF7 Tet-On GFP-IBD cells; type: cell-based
Procedure: To examine the effect of glucose metabolism on IRIF persistence in living cells, we exploited our previously described IRIF reporter consisting of GFP fused to the 53BP1 IRIF binding domain, expressed under tetracycline-inducible control. MCF7^Tet-On GFP-IBD cells were seeded at 3×10^5 per Fluorodish (World Precision Instruments, Inc.) in high-glucose (4.5 g/L) DMEM (Invitrogen) media supplemented with 10% Tet system-approved fetal bovine serum (Clontech) and 1 μg/mL doxycycline (Sigma). Next day media was exchanged for either high-glucose (4.5 g/L) or low-glucose (1 g/L) DMEM with 10% FBS and 1 μg/mL doxycycline. […] Cells were fixed at 3 h and 24 h for IRIF imaging and at day 5 for SA-βGal staining. Images were captured on Zeiss Axiovert 200M and a Hammatsu Orca ER FireWire digital monochrome (IRIF) or Zeiss Axiocam color digital camera (SA-βGal staining) controlled by OpenLab software.
To investigate what step of glycolysis is critical for improvement of DNA repair we used set of well established glycolysis inhibitors including glucose transporter Glut1 inhibitor, HXKi, GAPHi, PKi, LDHi. […] Given that elevated glycolysis predispose tumor cells for therapeutic resistance similar experiment has been performed on IR resistant PANC02 mouse pancreatic and U87 human glioma cell lines.

[6] = system: B16SIY murine melanoma tumors; assay: B16SIY tumor growth after veliparib and IR; type: in vivo, mouse; conditions: veliparib 0.5 mg twice daily oral + 6 or 12 Gy IR vs IR alone; C57/B6 mice
Procedure: as §1

[7] = system: TUBO murine mammary tumor cells; assay: Senescence, SASP expression and ATP release of TUBO cells in low or high glucose media; type: cell-based, mouse
Procedure: as §2

[8] = system: B16 melanoma cells; assay: RT-qPCR of SASP cytokines in B16 cells treated in vitro; type: cell-based, mouse; conditions: veliparib+IR
Procedure: as §2, §3

[9] = system: B16 tumors; assay: Flow cytometry of tumor infiltrating lymphocytes from B16 tumors; type: in vivo, mouse; conditions: veliparib+IR
Procedure: as §1

[10] = system: bone marrow DCs; assay: BM-DC coculture with veliparib/IR treated B16 cells; type: cell-based, mouse
Source text: as §3, with “These BM-DC were used to stimulate sorted CD4+ cells (Lugade 2008, Zhang 2008).” left out

[11] = system: bone marrow dendritic cells (CD11c); assay: Coculture of DCs with senescent TRAMP-C2 cells, immunostimulation assay; conditions: CD45 positive cells
Procedure: Briefly 2×10^6 of collected BM cells were resuspended in 10 ml of complete medium (CM) (RPMI, 10% FBS, pen/strep, HEPES) +20 ng/ml mouse granulocyte-macrophage colony-stimulating factor (GM-CSF). BM were transferred to uncoated plastic Petri dish. On a third day 10 ml of fresh CM+20 ng/ml GM-CSF were added. Immature dendritic cells (DC) were harvested on day 5, were suspended at 5×10^6 cells/ml in ice-cold freezing medium (CM+10 ng/ml GM-CSF+10% DMSO) and frozen for future experiments.
Assayed cells (TRAMP-C2) were plated 2.5×10^5 p100 plates and next day irradiated (6Gy) and 25 μM veliparib to obtained senescent phenotype. For TRAMP-C2 the coculture was started 6 days after cell irradiation and veliparib treatment. DCs were thawed and plated in CM+10 ng/ml GM-CSF 24 hours before they were cocultured with senescent TRAMP-C2 cells. In a day when co-culture started DCs were detached with trypsin and washed twice with phosphate buffered saline (PBS) to remove GM-CSF. Senescent TRAMP-C2 cells culture was washed with PBS and medium also changed to remove veliparib. Washed DCs and senescent cells were cocultured in fresh medium for 2-3 days.
After coculture medium was collected to harvest non-adherent cells fraction. […]
As CD45 is marker of immune cells, only CD45 positive cells were analyzed and TRAMP-C2 cells could be excluded from analysis as CD45 negative.

[12] = system: murine pancreatic cancer cell line p1048; assay: SA-βGal staining and cytokine expression in p1048 cells; type: cell-based, mouse
Procedure: as §2

[13] = veliparib+IR, 7 days after irradiation

C[C@]1(c2nc3c(C(N)=O)cccc3[nH]2)CCCN1 [veliparib, (R)-2-(2-methylpyrrolidin-2-yl)-1H-benzo[d]imidazole-4-carboxamide]
radiation induced senescence [1]: enhances radiation induced senescence
enlarged cells and SA-βGal staining in tumors [2]: greater numbers of enlarged cells and more intense SA-βGal staining
DNA damage foci resolution (γH2AX, p53BP1) ([3]; 24 h): delayed DNA damage foci resolution
accelerated senescence (cell morphology, SA-βGal) ([3]; day 7): induced accelerated senescence
SASP gene expression in tumors (IFNβ, IFNγ, CCL2, CCL5, CXCL9, CXCL10, CXCL11) ([4]; veliparib+IR): increased expression of SASP genes
immunohistochemistry of enlarged senescent tumor cells ([4]; veliparib+IR): distinct strong staining of IFNβ, CCL2, CXCL9 and CXCL10
p21 and p16 expression in tumors ([4]; veliparib+IR vs IR alone, normalized to GAPDH): significantly increased expression of p21 and p16
effect on cisplatin-induced foci persistence, senescence and growth suppression ([5]; combined with cisplatin): enhances this effect
accelerated senescence ([5]; combined with irradiation): induces accelerated senescence
persistence of GFP-53BP1 foci (IRIF) ([5]; combined with irradiation): enhance radiation induced persistence of GFP-53BP1 foci
foci persistence and senescence in presence of estrogen ([5]; irradiated cells, estrogen): overcomes the activity of estrogen
growth ([5]; veliparib+6 Gy vs veliparib or radiation alone): causes growth suppression
tumor regrowth [6]: markedly delayed tumor regrowth
cell survival ([7]; IR and veliparib+IR, low glucose medium): more cells survived
senescent cell morphology and SA-βGal expression ([7]; veliparib and 12 Gy, data not shown): fail to display either the characteristic cell morphology or SA-βGal expression
IFNβ and CCL5 expression kinetics ([7]; veliparib+IR, high glucose media): only showed low level IFNβ and CCL5 at day 7
SA-βGal staining ([7]; veliparib+IR, low glucose media vs high glucose): More TUBO cells displayed enhanced senescence-associated β-galactosidase staining
extracellular ATP release ([7]; veliparib+IR, low glucose media, higher density): higher ATP was detected
IFNβ and CXCL11 expression kinetics ([7]; veliparib+IR, low glucose medium): started at day 5 through day 10
cell apoptosis ([7]; veliparib+IR, low vs high glucose medium): no increased cell apoptosis
chemokine expression (CCL2, CCL3, CCL5, CXCL9, CXCL10, CXCL11) [8]: upregulated
IFNβ transcription ([8]; 7 days after 6 Gy): increased transcription of IFNβ
IL-6 transcription ([8]; 7 days after 6 Gy): decreased IL-6
NK cells in tumors [9]: more abundant
proportion of IFNγ-producing CD8+ cells among tumor infiltrating lymphocytes [9]: 29%
CD8+ cell proliferation stimulated by cocultured DCs ([10]; DCs from coculture with veliparib+IR treated B16 cells): better stimulated CD8+ cell proliferation
CD11c+ cell proliferation ([10]; coculture with B16 cells treated with veliparib+6 Gy vs untreated or irradiated cells): increased CD11c+ cell proliferation
CD11c+ cell maturation (MHC-II+, CD86+) ([10]; coculture with veliparib+IR-treated cells vs radiation only): enhanced CD11c+ cell maturation
population of CD11c positive cells ([11]; TRAMP-C2 treated with 0 Gy+25 μM veliparib): 5.2%
population of CD11c positive cells ([11]; TRAMP-C2 treated with IR (6Gy)+25 μM veliparib): 36.7%
accelerated senescence and SASP ([12]; veliparib and 12 Gy): entering accelerated senescence and displaying an altered SASP
SA-βGal staining [12, 13]: induced SA-βGal staining
cytokine expression [12, 13]: upregulation of multiple cytokines
